From patent US8927500B2, “Peptidomimetic macrocycles” (Aileron Therapeutics, Inc., priority 2012, dated 2015)
Where two headings read alike, the source gives them in different places. Where a SMILES comes first, the peptide text is derived from it. Bridges are numbered along the chain shown (N, C = ends). [ ]: non-standard residue; d: D form. 2Nal = N[C@@H](Cc1ccc2ccccc2c1)C(=O)O; R8 = C=CCCCCCC[C@@](C)(N)C(=O)O; Cba = N[C@@H](CC1CCC1)C(=O)O; S5 = C=CCCC[C@](C)(N)C(=O)O

Key:
[1] = system: SJSA-1 cells; test: Cell lysis by peptidomimetic macrocycles (LDH release); assay type: cell-based; conditions: 1 h at 37C
[2] = target: T1, MDMX (Homo sapiens, UniProt O15151); test: Competitive fluorescence polarization assay for MDMX; assay type: binding; conditions: competitive FP assay; for IC50: read-out: IC50 (MDMX); for Ki: read-out: Ki (MDMX)
T1 sequence (O15151 1-125): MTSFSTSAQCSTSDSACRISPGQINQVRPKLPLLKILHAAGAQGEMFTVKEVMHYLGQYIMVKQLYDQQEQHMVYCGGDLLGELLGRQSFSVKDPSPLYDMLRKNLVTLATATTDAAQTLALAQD

[3] = target: MDM2 (Homo sapiens, UniProt Q00987); test: Competitive fluorescence polarization assay for MDM2; assay type: binding; conditions: competitive FP assay, MDM2
Sequence of MDM2 (Q00987 1-125): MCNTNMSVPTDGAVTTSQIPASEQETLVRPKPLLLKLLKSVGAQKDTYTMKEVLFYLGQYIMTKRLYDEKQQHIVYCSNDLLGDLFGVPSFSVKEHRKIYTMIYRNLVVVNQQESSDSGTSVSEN

[4] = system: Caspase 3; test: Caspase 3 detection assay in SJSA1 cells; assay type: cell-based; conditions: 48 h, Caspase 3 activation over DMSO-treated cells; for caspase 0.3 uM: 0.3 uM peptide; for caspase 3 uM: 3 uM peptide; for caspase 10 uM: 10 uM peptide; for caspase 30 uM: 30 uM peptide; for caspase 1 uM: 1 uM peptide

Row | SMILES | 6.25 uM % Lysed cells (1 h LDH) [1] [%] | 25 uM % Lysed cells (1 h LDH) [1] [%] | 50 uM % Lysed cells (1 h LDH) [1] [%] | IC50 [2] [nM] | Ki [2] [nM] | IC50 ([3]; read-out: IC50 (MDM2)) [nM] | Ki ([3]; read-out: Ki (MDM2)) [nM] | caspase 0.3 uM [4] | caspase 3 uM [4] | caspase 10 uM [4] | caspase 30 uM [4] | IC50 ([3]; IC50 (MDM2)) [nM] | Ki ([3]; Ki (MDM2)) [nM] | caspase 1 uM [4]
1 | CC(=O)N[C@@H](CC(C)C)C(=O)N[C@H](C(=O)N[C@@H](Cc1ccccc1)C(=O)N[C@]1(C)CCCCCCC=CCCC[C@@](C)(C(=O)N[C@@H](CO)C(=O)NC(C)(C)C(=O)N[C@@H](C)C(=O)N[C@@H](C)C(N)=O)NC(=O)[C@H](CC(C)C)NC(=O)[C@H](CCC(N)=O)NC(=O)[C@H](C)NC(=O)[C@H](Cc2c[nH]c3ccccc23)NC(=O)[C@H](Cc2ccc(O)cc2)NC(=O)[C@H](C)NC1=O)[C@@H](C)O (single isomer, unassigned) [compound 26] | 2 | −1 | 0 | 100 to 1000 | 10 to 100 | 10 to 100 | < 10 | 1 | 1 | 3 | 14 |  |  | 
2 | CC[C@H](C)[C@H](NC(=O)[C@H](C)NC(=O)[C@H](C)NC(=O)[C@]1(C)CCCC=CCCCCCC[C@@](C)(NC(=O)[C@H](Cc2ccccc2)NC(=O)[C@@H](NC(=O)[C@H](CC(C)C)NC(C)=O)[C@@H](C)O)C(=O)N[C@@H](C)C(=O)N[C@@H](Cc2ccc(O)cc2)C(=O)N[C@@H](Cc2c[nH]c3ccccc23)C(=O)N[C@@H](C)C(=O)N[C@@H](CCC(N)=O)C(=O)N[C@@H](CC(C)C)C(=O)N1)C(=O)N[C@@H](C)C(N)=O (single isomer, unassigned) [compound 65] | 0 | 0 | 2 | 100 to 1000 | 10 to 100 | 10 to 100 | < 10 | 1 | 6 | 28 | 34 |  |  | 
3 | CC[C@H](C)[C@H](NC(=O)[C@H](C)NC(=O)[C@H](C)NC(=O)[C@]1(C)CCCC=CCCCCCC[C@@](C)(NC(=O)[C@H](Cc2ccccc2)NC(=O)[C@@H](NC(=O)[C@H](CC(C)C)NC(C)=O)[C@@H](C)O)C(=O)N[C@@H](C)C(=O)N[C@@H](Cc2ccc(O)cc2)C(=O)N[C@@H](Cc2c[nH]c3ccccc23)C(=O)N[C@@H](C)C(=O)N[C@@H](C)C(=O)N[C@@H](CC(C)C)C(=O)N1)C(=O)N[C@@H](C(N)=O)C(C)C (single isomer, unassigned) [compound 77] | −2 | 1 | −1 | 100 to 1000 | 10 to 100 | 10 to 100 | < 10 | 1 | 2 | 19 | 23 |  |  | 
4 | CC(=O)N[C@@H](CC(C)C)C(=O)N[C@H](C(=O)N[C@@H](Cc1ccccc1)C(=O)N[C@]1(C)CCCCCCC=CCCC[C@@](C)(C(=O)N[C@@H](CO)C(=O)N[C@@H](C)C(=O)N[C@@H](C)C(N)=O)NC(=O)[C@H](CC2CCCCC2)NC(=O)[C@H](CCC(N)=O)NC(=O)[C@H](C)NC(=O)[C@H](Cc2c[nH]c3ccccc23)NC(=O)[C@H](Cc2ccc(O)cc2)NC(=O)[C@H](CCC(=O)O)NC1=O)[C@@H](C)O (single isomer, unassigned) [compound 148] | 0 | −1 | 0 | 100 to 1000 | 10 to 100 |  |  | 1 | 11 | 23 | 31 |  |  | 
5 | CC(=O)N[C@@H](CC(C)C)C(=O)N[C@H](C(=O)N[C@@H](Cc1ccccc1)C(=O)N[C@]1(C)CCCCCCC=CCCC[C@@](C)(C(=O)N[C@@H](C)C(=O)N[C@@H](C)C(=O)N[C@@H](C)C(=O)N[C@@H](C)C(=O)N[C@@H](C)C(=O)N[C@@H](C)C(=O)N[C@H](C)C(N)=O)NC(=O)[C@H](CC(C)C)NC(=O)[C@H](CCC(N)=O)NC(=O)[C@H](C)NC(=O)[C@H](Cc2c[nH]c3ccccc23)NC(=O)[C@H](Cc2ccc(O)cc2)NC(=O)[C@H](C)NC1=O)[C@@H](C)O (single isomer, unassigned) [compound 316] | 0 | 0 | 1 |  |  |  |  | 6.5 | 21 | 32 | 32.5 | < 10 | < 10 | 10.5
6 | CC(=O)N[C@@H](CC(C)C)C(=O)N[C@H](C(=O)N[C@@H](Cc1ccccc1)C(=O)N[C@]1(C)CCCCCCC=CCCC[C@@](C)(C(=O)N[C@@H](C)C(=O)N[C@@H](C)C(=O)N[C@@H](C)C(=O)N[C@@H](C)C(=O)N[C@@H](C)C(=O)N[C@@H](C)C(=O)N[C@H](C)C(N)=O)NC(=O)[C@H](CC(C)C)NC(=O)[C@H](CCC(N)=O)NC(=O)[C@H](C)NC(=O)[C@H](Cc2c[nH]c3ccccc23)NC(=O)[C@H](Cc2ccc(O)cc2)NC(=O)[C@H](C)NC1=O)[C@@H](C)O (single isomer, unassigned) [compound 317] | 0 | 0 | 0 |  |  |  |  | 3 | 9 | 26 | 35 | 10 to 100 | 10 to 100 | 4
7 | CC(=O)N[C@@H](CC(C)C)C(=O)N[C@H](C(=O)N[C@@H](Cc1ccccc1)C(=O)N[C@]1(C)CCCCCCC=CCCC[C@@](C)(C(=O)N[C@@H](CO)C(=O)N[C@@H](C)C(=O)N[C@@H](C)C(=O)N[C@H](C)C(N)=O)NC(=O)[C@H](CC2CCC2)NC(=O)[C@H](CCC(N)=O)NC(=O)[C@H](C)NC(=O)[C@H](Cc2c[nH]c3ccccc23)NC(=O)[C@H](Cc2ccc(O)cc2)NC(=O)[C@H](CCC(=O)O)NC1=O)[C@@H](C)O (single isomer, unassigned) [compound 353] | 0 | 0 | 0 | 10 to 100 | < 10 |  |  | 1 | 5 | 7 | 30 |  |  | 2
8 | CC(=O)N[C@@H](CC(C)C)C(=O)N[C@H](C(=O)N[C@@H](Cc1ccccc1)C(=O)N[C@]1(C)CCCCCCC=CCCC[C@@](C)(C(=O)N[C@@H](CO)C(=O)N[C@@H](C)C(=O)N[C@@H](C)C(N)=O)NC(=O)[C@H](CC2CCC2)NC(=O)[C@H](CCC(N)=O)NC(=O)[C@H](C)NC(=O)[C@H](Cc2ccc3ccccc3c2)NC(=O)[C@H](Cc2ccc(O)cc2)NC(=O)[C@H](CCC(=O)O)NC1=O)[C@@H](C)O [compound 254] (Ac-LTF[R8]EY[2Nal]AQ[Cba][S5]SAA-NH2; staple 4-11) | 11 | 60 | 75 | 100 to 1000 | 10 to 100 |  |  | 1 | 7 | 14 | 22 |  |  | 3
